Some results are limits rather than exact numbers.

For data set [1], the system named is full length SMN2 minigene mRNA containing SMN2 exon 7. The data set is described as follows: SMN2 minigene mRNA splicing RT-qPCR assay in cultured cells. The data set is classed as cell-based, human. The note with it: Homo sapiens, HEK293-H; HEK293H cells stably transfected with SMN2-A minigene, 24 hours, 7-point concentration curve; concentration giving 1.5-fold full length SMN2 mRNA vs vehicle; read-out: EC1.5x for production of full length SMN2 mRNA. In outline:
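Read-out is minigene FL mRNA (exon 7 included) relative to vehicle, from efficiency-corrected ΔΔCt with GAPDH normalisation. Primers and probe span exon 7, exon 8 and luciferase, so endogenous SMN is not detected. Stable SMN2-A minigene HEK293H cells, 24 h compound exposure at 37 °C, 7-point curve in duplicate.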
(In general: In qPCR the cycle at which signal appears reflects the starting amount.)

The test system of data set [2] is Smn protein. The data set is described as follows: Smn protein assay in cultured cells (SMN HTRF). The note with it: SMA patient fibroblast cells (GM03813), 48 hours; for EC1.5x for Smn protein expression: 7-point concentration curve, concentration producing 1.5 times Smn protein vs DMSO vehicle; for maximum fold (Fold) increase of Smn protein: 7-point concentration data, relative to vehicle control. In kind it is cell-based, human. In outline: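 Smn protein measured by HTRF (anti-SMN d2/kryptate) in lysates of SMA patient fibroblasts after 48 h compound treatment, 7-point 3.16-fold dilutions, triplicates. The 665/620 nm ratio is blank-corrected to ΔF, then divided by the vehicle ΔF to give fold increase.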
(Time-resolved FRET reads energy transfer from a long-lived donor to a nearby acceptor.)

The compound `Cc1cn2cc(-c3cc4ccc(N5CCN(C(C)(C)C)CC5)cc4c(=O)o3)nc2c(C)n1` [Cpd 83, 7-(4-tert-butylpiperazin-1-yl)-3-(6,8-dimethylimidazo[1,2-a]pyrazin-2-yl)-1H-isochromen-1-one] had a melting point of 300 to 302 °C. Moreover, the EC (1.5-fold) in data set [1] was in the range of 0.1 to 0.3 µM. For the same compound, in data set [2], the “EC1.5x for Smn protein expression” value was “*** (an EC1.5× between >0.3 nM and ≦1 nM is indicated by three stars (***))”; the “maximum fold (Fold) increase of Smn protein” value (shortened to “maximum fold (Fold) increase”) is “**** (a fold increase between >1.5 and ≦1.65 is indicated by four stars (****))”.

`O=c1oc(-c2nc3ccccc3s2)cc2ccc(N3CCNCC3)cc12` [Cpd 8, 3-(1,3-benzothiazol-2-yl)-7-(piperazin-1-yl)-1H-isochromen-1-one] registered a melting point of 324 to 326 °C. For the same compound, in data set [1], the EC (1.5-fold) fell in the range of 3 to 30 µM. The “maximum fold (Fold) increase” value in data set [2] is given as “* (A maximum fold increase of ≦1.2 is indicated by one star (*))”.

For the compound `COc1ccc(-c2cc3ccc(N4CCNCC4)cc3c(=O)o2)cc1OC` [Cpd 3, 3-(3,4-dimethoxyphenyl)-7-(piperazin-1-yl)-1H-isochromen-1-one], the melting point lay within 142 to 143 °C. The EC (1.5-fold) in data set [1] is not above 0.1 µM. In data set [2], the “EC1.5x for Smn protein expression” value was “*** (an EC1.5× between >0.3 nM and ≦1 nM is indicated by three stars (***))”; the “maximum fold (Fold) increase” value was “**** (a fold increase between >1.5 and ≦1.65 is indicated by four stars (****))”.

As to `Cc1cn2cc(-c3cc4ccc(N5CCNCC5)cc4c(=O)o3)nc2cn1` [Cpd 56, 3-(6-methylimidazo[1,2-a]pyrazin-2-yl)-7-(piperazin-1-yl)-1H-isochromen-1-one], the melting point was 225 to 227 °C. In addition, in data set [1], the EC (1.5-fold) was not above 0.1 µM. For the same compound, in data set [2], the “EC1.5x for Smn protein expression” value is “**** (an EC1.5×≦0.3 nM is indicated by four stars (****))” and the “maximum fold (Fold) increase” value is listed as “***** (a fold increase >1.65 is indicated by five stars (*****))”.

For the compound `Cc1nc(Cl)cn2cc(-c3cc4ccc(N5C[C@@H](C)N[C@@H](C)C5)cc4c(=O)o3)nc12` [Cpd 110, 3-(6-chloro-8-methylimidazo[1,2-a]pyrazin-2-yl)-7-[(3R,5S)-3,5-dimethylpiperazin-1-yl]-1H-isochromen-1-one], the melting point lay within 261 to 266 °C. Moreover, the EC (1.5-fold) in data set [1] lay within 0.3 to 1 µM. Also, in data set [2], the “EC1.5x for Smn protein expression” value is “*** (an EC1.5× between >0.3 nM and ≦1 nM is indicated by three stars (***))”; the “maximum fold (Fold) increase” value was “**** (a fold increase between >1.5 and ≦1.65 is indicated by four stars (****))”.

The compound `Cc1cn2cc(-c3cc4ccc(N5CCC(O)CC5)cc4c(=O)o3)nc2c(C)n1` [Cpd 123, 3-(6,8-dimethylimidazo[1,2-a]pyrazin-2-yl)-7-(4-hydroxypiperidin-1-yl)-1H-isochromen-1-one] had a melting point of 290 to 292 °C. The EC (1.5-fold) in data set [1] was 1 to 3 µM. In addition, the “maximum fold (Fold) increase” value in data set [2] was “* (A maximum fold increase of ≦1.2 is indicated by one star (*))”.

For `O=c1oc(-c2ccc3c(c2)OCCO3)cc2ccc(N3CCNCC3)cc12` [Cpd 13, 3-(2,3-dihydro-1,4-benzodioxin-6-yl)-7-(piperazin-1-yl)-1H-isochromen-1-one], the melting point lay in the range of 253 to 255 °C. In data set [1], the EC (1.5-fold) is 1 to 3 µM. The “maximum fold (Fold) increase” value in data set [2] is reported as “* (A maximum fold increase of ≦1.2 is indicated by one star (*))”.

`Cc1nc(Cl)cn2cc(-c3cc4ccc(N5CCN(C(C)C)CC5)cc4c(=O)o3)nc12` [Cpd 101, 3-(6-chloro-8-methylimidazo[1,2-a]pyrazin-2-yl)-7-[4-(propan-2-yl)piperazin-1-yl]-1H-isochromen-1-one] displayed a melting point of 286 to 291 °C. Also, the EC (1.5-fold) in data set [1] fell in the range of 0.1 to 0.3 µM. For the same compound, in data set [2], the “EC1.5x for Smn protein expression” value is “*** (an EC1.5× between >0.3 nM and ≦1 nM is indicated by three stars (***))”; the “maximum fold (Fold) increase” value was “***** (a fold increase >1.65 is indicated by five stars (*****))”.

On to `O=c1oc(-c2nc3ccccc3s2)cc2ccc(N3CCCNCC3)cc12` [Cpd 10, 3-(1,3-benzothiazol-2-yl)-7-(1,4-diazepan-1-yl)-1H-isochromen-1-one], for which the melting point is 277 to 279 °C. In addition, the EC (1.5-fold) in data set [1] was in the range of 1 to 3 µM. Besides, in data set [2], the “maximum fold (Fold) increase” value is “* (A maximum fold increase of ≦1.2 is indicated by one star (*))”.

Consider `Cc1nc2ccc(-c3cc4ccc(N5CCN(C6COC6)CC5)cc4c(=O)o3)cc2s1` [Cpd 107, 3-(2-methyl-1,3-benzothiazol-6-yl)-7-[4-(oxetan-3-yl)piperazin-1-yl]-1H-isochromen-1-one], for which the melting point was in the range of 222 to 228 °C. For the same compound, the EC (1.5-fold) in data set [1] is 0.3 to 1 µM. Besides, the “maximum fold (Fold) increase” value in data set [2] was “*** (a fold increase between >1.35 and ≦1.5 is indicated by three stars (***))”.

In the case of `CCOc1ccc(-c2cc3ccc(N4CCN[C@@H](C)C4)cc3c(=O)o2)cc1` [Cpd 42, 3-(4-ethoxyphenyl)-7-[(3S)-3-methylpiperazin-1-yl]-1H-isochromen-1-one], the melting point was in the range of 239 to 240 °C. The EC (1.5-fold) in data set [1] was in the range of 0.1 to 0.3 µM. In addition, the “maximum fold (Fold) increase” value in data set [2] is “** (a fold increase between >1.2 and ≦1.35 is indicated by two stars (**))”.

In turn, `CN1CCN(c2ccc3cc(-c4ccc5c(c4)OCO5)oc(=O)c3c2)CC1` [Cpd 15, 3-(1,3-benzodioxol-5-yl)-7-(4-methylpiperazin-1-yl)-1H-isochromen-1-one] returned a melting point of 297 to 299 °C. Besides, in data set [1], the EC (1.5-fold) is 3 to 30 µM. For the same compound, the “maximum fold (Fold) increase” value in data set [2] is reported as “* (A maximum fold increase of ≦1.2 is indicated by one star (*))”.

On to `Cc1cn2cc(-c3cc4ccc(N5CCN(C(C)C)CC5)cc4c(=O)o3)cc2c(C)n1` [Cpd 78, 3-(1,3-dimethylpyrrolo[1,2-a]pyrazin-7-yl)-7-[4-(propan-2-yl)piperazin-1-yl]-1H-isochromen-1-one], for which the melting point lay in the range of 213 to 215 °C. Further, in data set [1], the EC (1.5-fold) is not above 0.1 µM. The “maximum fold (Fold) increase” value in data set [2] was “*** (a fold increase between >1.35 and ≦1.5 is indicated by three stars (***))”.

`Cc1cn2cc(-c3cc4ccc(N5CCN(C6CCC6)[C@@H](C)C5)cc4c(=O)o3)nc2c(C)n1` [Cpd 136, 7-[(3S)-4-cyclobutyl-3-methylpiperazin-1-yl]-3-(6,8-dimethylimidazo[1,2-a]pyrazin-2-yl)-1H-isochromen-1-one] showed a melting point of 277 to 282 °C. The EC (1.5-fold) in data set [1] is not above 0.1 µM. For the same compound, in data set [2], the “EC1.5x for Smn protein expression” value is recorded as “**** (an EC1.5×≦0.3 nM is indicated by four stars (****))” and the “maximum fold (Fold) increase” value is “***** (a fold increase >1.65 is indicated by five stars (*****))”.

For the compound `CN1CCN(c2ccc3cc(-c4cn5ccsc5n4)oc(=O)c3c2)CC1` [Cpd 33, 3-(imidazo[2,1-b][1,3]thiazol-6-yl)-7-(4-methylpiperazin-1-yl)-1H-isochromen-1-one], the melting point was in the range of 236 to 238 °C. The EC (1.5-fold) in data set [1] fell in the range of 1 to 3 µM. In data set [2], the “maximum fold (Fold) increase” value was “* (A maximum fold increase of ≦1.2 is indicated by one star (*))”.

With `Cc1cn2cc(-c3cc4ccc(C5=CCN(C6COC6)CC5)cc4c(=O)o3)nc2c(C)n1` [Cpd 98, 3-(6,8-dimethylimidazo[1,2-a]pyrazin-2-yl)-7-[1-(oxetan-3-yl)-1,2,3,6-tetrahydropyridin-4-yl]-1H-isochromen-1-one], the melting point was 253 to 255 °C. Besides, in data set [1], the EC (1.5-fold) is not above 0.1 µM. In data set [2], the “EC1.5x for Smn protein expression” value is “*** (an EC1.5× between >0.3 nM and ≦1 nM is indicated by three stars (***))”; the “maximum fold (Fold) increase” value is given as “***** (a fold increase >1.65 is indicated by five stars (*****))”.

`CCc1nc(C)cn2cc(-c3cc4ccc(N5CCN(C)[C@@H](C)C5)cc4c(=O)o3)nc12` [Cpd 155, 7-[(3S)-3,4-dimethylpiperazin-1-yl]-3-(8-ethyl-6-methylimidazo[1,2-a]pyrazin-2-yl)-1H-isochromen-1-one] showed a melting point of 233 to 238 °C. The EC (1.5-fold) in data set [1] was not above 0.1 µM. In addition, in data set [2], the “EC1.5x for Smn protein expression” value is “**** (an EC1.5×≦0.3 nM is indicated by four stars (****))” and the “maximum fold (Fold) increase” value was “***** (a fold increase >1.65 is indicated by five stars (*****))”.

Regarding `C[C@@H]1CN(c2ccc3cc(-c4ccc5c(c4)OCCO5)oc(=O)c3c2)C[C@H](C)N1` [Cpd 39, 3-(2,3-dihydro-1,4-benzodioxin-6-yl)-7-[(3R,5S)-3,5-dimethylpiperazin-1-yl]-1H-isochromen-1-one], the melting point fell in the range of 218 to 220 °C. In addition, in data set [1], the EC (1.5-fold) fell in the range of 1 to 3 µM. The “maximum fold (Fold) increase” value in data set [2] was “* (A maximum fold increase of ≦1.2 is indicated by one star (*))”.

Turning to `C[C@H]1CN(c2ccc3cc(-c4cn5ccsc5n4)oc(=O)c3c2)CCN1` [Cpd 55, 3-(imidazo[2,1-b][1,3]thiazol-6-yl)-7-[(3S)-3-methylpiperazin-1-yl]-1H-isochromen-1-one], the melting point fell in the range of 340 to 342 °C. Also, the EC (1.5-fold) in data set [1] is 0.1 to 0.3 µM. For the same compound, the “maximum fold (Fold) increase” value in data set [2] was “** (a fold increase between >1.2 and ≦1.35 is indicated by two stars (**))”.

By melting point is commonly meant the temperature of the solid-liquid transition.

Values taken from patent US9399649B2, “Compounds for treating spinal muscular atrophy” (PTC Therapeutics Inc., priority 2012, dated 2016).
